What was measured:
[1] = target: T1, PDH (photoreceptor retinol dehydrogenase, isoform C; PDHc) (Drosophila melanogaster, UniProt B7Z062); test: differential scanning fluorimetry; format: binding
T1 sequence (B7Z062 2-261): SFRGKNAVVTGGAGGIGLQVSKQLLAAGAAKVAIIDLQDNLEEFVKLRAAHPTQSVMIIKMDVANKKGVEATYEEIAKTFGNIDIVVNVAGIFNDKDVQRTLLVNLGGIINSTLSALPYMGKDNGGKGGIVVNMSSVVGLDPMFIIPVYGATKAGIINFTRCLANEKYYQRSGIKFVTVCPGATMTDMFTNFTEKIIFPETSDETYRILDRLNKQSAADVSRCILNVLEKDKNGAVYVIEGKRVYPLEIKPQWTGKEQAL

[2] = target: Drosophila melanogaster photoreceptor retinol dehydrogenase (PDH) isoform C (Drosophila melanogaster); test: crystal structure

| Kd [1] | stoichiometry N [2] | Molecule |
| --- | --- | --- |
| 170 ± 30 µM |  | NC(=O)c1ccc[n+]([C@@H]2O[C@H](COP(=O)([O-])OP(=O)(O)OC[C@H]3O[C@@H](n4cnc5c(N)ncnc54)[C@H](O)[C@@H]3O)[C@@H](O)[C@H]2O)c1 [NAD^+] |
|  | 2 | Drosophila melanogaster photoreceptor retinol dehydrogenase (PDH) isoform C (enzyme) |

Source: publication PMC5154250 (Biochemistry, 2016)
